Patent publication US9546164B2 (GENENTECH, INC., priority 2013, dated 2017)
Where a name gives a salt, the structure may show the parent alone. Read-outs that look alike come from different tables or passages of the source.

Legend:
NaV1.5 [1] = biological target: T1, NaV1.5 (Homo sapiens (Human), UniProt Q14524); assay: Patch voltage clamp electrophysiological assay (EP), NaV1.5
Method: (§1) The following patch voltage clamp electrophysiology studies were performed on representative compounds of the invention using human embryonic kidney cells (HEK), permanently transfected with an expression vector containing the full-length cDNA coding for the desired human sodium channel α-subunit, grown in culture media containing 10% FBS, 1% PSG, and 0.5 mg/mL G418 at 37° C. with 5% CO2. […] The β1 subunit was coexpressed in both the NaV1.7 and NaV1.5 cell lines.
(§2) Sodium currents were measured rising the patch clamp technique in the whole-cell configuration using either a PatchXpress automated voltage clamp or manually using an Axopatch 200B (Axon Instruments) or Model 2400 (A-M systems) amplifier. […] The pipette was filled with a solution comprised of: 5 mM NaCl, 10 mM CsCl, 120 mM CsF, 0.1 mM CaCl2, 2 mM MgCl2, 10 mM HEPES, 10 mM EGTA; and adjusted to pH 7.2 with CsOH. The external solution had the following composition: 140 mM NaCl, 5 mM KCl, 2 mM CaCl2, 1 mM MgCl2, 10 mM HEPES; and adjusted to pH 7.4 with NaOH. In some studies, the external sodium was reduced by equimolar replacement with choline. Osmolality in the CsF internal and NaCl external solutions was adjusted to 300 mOsm/kg and 310 mOsm/kg with glucose, respectively. All recordings were performed at ambient temperature in a bath chamber with a volume of 150 μL. Control sodium currents were measured in 0.5% DMSO. Controls and representative compounds of the invention were applied to the recording chamber through a 4-pinch or 8-pinch valve bath perfusion system manufactured by ALA Scientific Instruments.
(§3) Currents were recorded at 40 kHz sampling frequency, filtered at 5 Hz, and stored using a Digidata-1322A analogue/digital interface with the pClamp software (Axon instruments). Series resistance compensation was applied (60-80%). […] All statistics in this study are given as mean±SD.
(§4) The membrane potential was maintained at a voltage where reactivation of the channel is complete (which was −60 mV for both NaV1.7 and NaV1.5). The voltage is then stepped back to a very negative (Vhold=150 mV) voltage for 20 ms and then a test poise is applied to quantify the compound block. The 20 ms brief repolarization was long enough for compound-free channels to completely recover from fast inactivation, but the compound-bound channels recovered more slowly such that negligible recovery could occur during this interval. The percent decrease in sodium current following wash-on of compound was taken as the percent block of sodium channels.

hNav1.7 = hNav1.7 (Homo sapiens (Human), UniProt Q15858); assay: Tritiated sulfonamide competitive binding to membranes from cells expressing hNav1.7 and the β1 subunit;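 also: Filter-bound radioactivity counted by liquid scintillation, nonspecific binding defined with excess unlabelled ligand, IC50 fitted to percent inhibition of specific binding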
Chain of hNav1.7 (Q15858 other isoform, or with tags, fused parts or gaps): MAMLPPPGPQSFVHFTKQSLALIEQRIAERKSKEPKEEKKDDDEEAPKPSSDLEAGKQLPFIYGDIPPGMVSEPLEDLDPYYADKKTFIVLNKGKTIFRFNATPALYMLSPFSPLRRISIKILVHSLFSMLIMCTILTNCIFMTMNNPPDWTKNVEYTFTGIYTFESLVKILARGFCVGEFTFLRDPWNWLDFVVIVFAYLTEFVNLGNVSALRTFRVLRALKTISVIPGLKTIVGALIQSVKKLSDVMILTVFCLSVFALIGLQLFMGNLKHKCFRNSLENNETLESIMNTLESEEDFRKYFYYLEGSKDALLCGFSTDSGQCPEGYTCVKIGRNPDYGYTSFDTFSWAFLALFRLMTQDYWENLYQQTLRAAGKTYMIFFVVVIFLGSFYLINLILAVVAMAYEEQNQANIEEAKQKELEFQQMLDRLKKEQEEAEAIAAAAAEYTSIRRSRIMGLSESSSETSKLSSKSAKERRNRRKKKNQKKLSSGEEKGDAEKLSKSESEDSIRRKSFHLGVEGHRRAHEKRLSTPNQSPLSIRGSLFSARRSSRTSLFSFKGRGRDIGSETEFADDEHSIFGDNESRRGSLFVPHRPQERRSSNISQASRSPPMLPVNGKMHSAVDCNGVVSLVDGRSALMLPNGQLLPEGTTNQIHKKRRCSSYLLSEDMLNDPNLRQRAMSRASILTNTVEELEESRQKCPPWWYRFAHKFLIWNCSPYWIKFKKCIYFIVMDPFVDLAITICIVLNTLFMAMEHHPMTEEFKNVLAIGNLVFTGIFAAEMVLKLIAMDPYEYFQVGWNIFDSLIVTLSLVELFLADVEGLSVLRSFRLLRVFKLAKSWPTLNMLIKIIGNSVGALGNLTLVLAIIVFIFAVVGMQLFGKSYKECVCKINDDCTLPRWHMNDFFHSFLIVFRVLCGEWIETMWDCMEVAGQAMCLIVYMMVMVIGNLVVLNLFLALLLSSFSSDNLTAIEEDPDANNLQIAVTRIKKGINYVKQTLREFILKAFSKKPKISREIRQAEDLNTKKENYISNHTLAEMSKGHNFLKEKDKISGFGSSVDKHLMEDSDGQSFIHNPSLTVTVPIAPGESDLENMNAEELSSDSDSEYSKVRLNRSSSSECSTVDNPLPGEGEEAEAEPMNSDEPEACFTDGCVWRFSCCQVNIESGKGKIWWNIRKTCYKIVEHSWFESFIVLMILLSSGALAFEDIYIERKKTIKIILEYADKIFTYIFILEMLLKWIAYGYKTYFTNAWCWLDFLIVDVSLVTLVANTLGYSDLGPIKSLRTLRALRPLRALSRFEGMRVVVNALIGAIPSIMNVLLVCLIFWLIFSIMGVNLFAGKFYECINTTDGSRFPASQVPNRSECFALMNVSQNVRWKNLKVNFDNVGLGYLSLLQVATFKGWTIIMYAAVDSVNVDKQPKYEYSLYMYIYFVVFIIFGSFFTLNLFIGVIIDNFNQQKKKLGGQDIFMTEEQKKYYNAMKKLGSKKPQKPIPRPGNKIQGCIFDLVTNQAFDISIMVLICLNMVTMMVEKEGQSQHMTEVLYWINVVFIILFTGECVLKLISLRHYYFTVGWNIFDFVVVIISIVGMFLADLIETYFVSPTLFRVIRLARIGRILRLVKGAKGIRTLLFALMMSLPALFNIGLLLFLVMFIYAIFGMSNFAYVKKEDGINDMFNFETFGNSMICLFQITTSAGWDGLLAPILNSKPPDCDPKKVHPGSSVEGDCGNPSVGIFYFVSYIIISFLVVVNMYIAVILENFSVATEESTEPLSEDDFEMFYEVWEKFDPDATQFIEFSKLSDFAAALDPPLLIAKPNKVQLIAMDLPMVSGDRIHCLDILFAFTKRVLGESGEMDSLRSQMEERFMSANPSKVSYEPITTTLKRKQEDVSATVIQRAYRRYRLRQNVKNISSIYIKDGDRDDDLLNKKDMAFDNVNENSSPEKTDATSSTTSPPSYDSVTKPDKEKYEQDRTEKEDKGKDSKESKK
Chain of hNav1.7 (Q07699 19-218 partner): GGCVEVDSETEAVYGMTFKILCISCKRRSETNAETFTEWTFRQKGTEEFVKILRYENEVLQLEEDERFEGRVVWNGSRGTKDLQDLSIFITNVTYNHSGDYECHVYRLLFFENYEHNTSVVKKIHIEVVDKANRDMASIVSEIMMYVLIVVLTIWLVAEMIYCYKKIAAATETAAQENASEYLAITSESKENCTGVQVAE
Method: Tritiated Sulfonamide Binding to Membranes
Preparation of membranes containing recombinantly expressed sodium channels: Frozen recombinant cell pellets were thawed on ice and diluted to 4 times the cell pellet weight with ice cold 50 mM TrisHCl, pH 7.4 buffer. The cell suspensions were homogenized on ice using a motorized glass douncehomogeniser. Homogenates were further diluted 8.4 times with ice cold 50 mM TrisHCl, pH 7.4 buffer and then centrifuged at 200×g at 4° C. for 15 min. The supersatants were collected and centrifuged at 10000×g at 4° C. for 50 min. The pellets were then re-suspended in 100 mMNaCl, 20 mM TrisHCl, pH. 7.4 buffer containing 1% v/v protease inhibitors (Calbiochem) and re-homogenized on ice. The homogenized membranes were then processed through a syringe equipped with a 26 gauge needle. Protein concentrations were determined by Bradford Assay and the membranes were stored at −80° C.
Radioligand Binding Studies: Saturation experiments. A representative compound of formula (I) having a methyl group was tritiated. Three tritiums were incorporated in place of methyl hydrogens to generate [^3H]compound. Binding of this radioligand was preformed in 5 mL borosilicate glass test tubes at room temperature. Binding was initiated by adding membranes to increasing concentrations of [^3H]compound in 100 mM NaCl, 20 mM TrisHCl, pH 7.4 buffer containing 0.01% w/v bovine serum albumin (BSA) for 18 h. Non-specific binding was determined in the presence of 1 μM unlabelled compound. After 18 h, the reactants were filtered through GF/C glass fiber filters presoaked in 0.5% w/v polyethylene imine. Filters were washed with 15 mL ice cold 100 mM NaCl, 20 mM TrisHCl, pH7.4 buffer containing 0.25% BSA to separate bound from free ligand. [^3H]compound bound to filters was quantified by liquid scintillation counting.
Competitive binding experiments: Binding reactions were preformed its 96-well polypropylene plates at room temperature for 18 h. In 360 μL, membranes were incubated with 100 pM [^3H]compound and increasing concentrations of Test Compound. Non-specific binding was defined in the presence of 1 μM unlabelled compound. Reactions were transferred and filtered through 96-well glass fiber/C filter plates presoaked with 0.5% polyethylene imine. The filtered reactions were washed 5 times with 200 μL ice cold butter containing 0.25% BSA. Bound radioactivity was determined by liquid scintillation counting.
Data Analysis: For saturation experiments, non-specific binding was subtracted from total binding to provide specific binding and these values were recalculated in terms of pmol ligand bound per mg protein. Saturation curves were constructed and dissociation constants were calculated using the single site ligand binding model: Beq=(Bmax*X)/(X+KD), where Beq is the amount of ligand bound at equilibrium, Bmax is the maximum receptor density, Kd is the dissociation constant for the ligand, and X is the tree ligand concentration. For competition studies percent inhibition was determined and IC50 values were calculated using a 4 parameter logistic model (% inhibition=(A+((B−A)/(1+((x/C)^D)))) using XLfit, where A and B are the maximal and minimum inhibition respectively, C is the IC50 concentration and D is the (Hill) slope.

NaV1.7 = NaV1.7 (Homo sapiens (Human), UniProt Q15858); assay: Patch voltage clamp electrophysiological assay (EP), NaV1.7; type: cell-based; details: HEK-293 cells stably expressing human NaV1.7 with β1 subunit, whole-cell patch clamp, holding −60 mV
Chain of NaV1.7 (Q15858 other isoform, or with tags, fused parts or gaps): as the sequence (Q15858 other isoform, or with tags, fused parts or gaps) above
Chain of NaV1.7 (Q07699 19-218 partner): as the sequence (Q07699 19-218 partner) above
Method: Electrophysiological Assay (EP) (In vitro Assay)
Control sodium currents were measured in 0.5% DMSO.
Series resistance compensation was applied (60-80%).

NaV1.5 [2] = biological target: T1, NaV1.5
Method: as §1, §2, §3, §4

[3] = read-out: NaV1.5 EP, HEK-293 cells stably expressing human NaV1.5 with β1 subunit, whole-cell patch clamp, holding −60 mV
[4] = read-out: Ligand Binding Assay, 100 pM [3H]compound, membranes with hNav1.7 and β1 subunit, 18 h, room temperature

T1 sequence (Q14524 whole entry): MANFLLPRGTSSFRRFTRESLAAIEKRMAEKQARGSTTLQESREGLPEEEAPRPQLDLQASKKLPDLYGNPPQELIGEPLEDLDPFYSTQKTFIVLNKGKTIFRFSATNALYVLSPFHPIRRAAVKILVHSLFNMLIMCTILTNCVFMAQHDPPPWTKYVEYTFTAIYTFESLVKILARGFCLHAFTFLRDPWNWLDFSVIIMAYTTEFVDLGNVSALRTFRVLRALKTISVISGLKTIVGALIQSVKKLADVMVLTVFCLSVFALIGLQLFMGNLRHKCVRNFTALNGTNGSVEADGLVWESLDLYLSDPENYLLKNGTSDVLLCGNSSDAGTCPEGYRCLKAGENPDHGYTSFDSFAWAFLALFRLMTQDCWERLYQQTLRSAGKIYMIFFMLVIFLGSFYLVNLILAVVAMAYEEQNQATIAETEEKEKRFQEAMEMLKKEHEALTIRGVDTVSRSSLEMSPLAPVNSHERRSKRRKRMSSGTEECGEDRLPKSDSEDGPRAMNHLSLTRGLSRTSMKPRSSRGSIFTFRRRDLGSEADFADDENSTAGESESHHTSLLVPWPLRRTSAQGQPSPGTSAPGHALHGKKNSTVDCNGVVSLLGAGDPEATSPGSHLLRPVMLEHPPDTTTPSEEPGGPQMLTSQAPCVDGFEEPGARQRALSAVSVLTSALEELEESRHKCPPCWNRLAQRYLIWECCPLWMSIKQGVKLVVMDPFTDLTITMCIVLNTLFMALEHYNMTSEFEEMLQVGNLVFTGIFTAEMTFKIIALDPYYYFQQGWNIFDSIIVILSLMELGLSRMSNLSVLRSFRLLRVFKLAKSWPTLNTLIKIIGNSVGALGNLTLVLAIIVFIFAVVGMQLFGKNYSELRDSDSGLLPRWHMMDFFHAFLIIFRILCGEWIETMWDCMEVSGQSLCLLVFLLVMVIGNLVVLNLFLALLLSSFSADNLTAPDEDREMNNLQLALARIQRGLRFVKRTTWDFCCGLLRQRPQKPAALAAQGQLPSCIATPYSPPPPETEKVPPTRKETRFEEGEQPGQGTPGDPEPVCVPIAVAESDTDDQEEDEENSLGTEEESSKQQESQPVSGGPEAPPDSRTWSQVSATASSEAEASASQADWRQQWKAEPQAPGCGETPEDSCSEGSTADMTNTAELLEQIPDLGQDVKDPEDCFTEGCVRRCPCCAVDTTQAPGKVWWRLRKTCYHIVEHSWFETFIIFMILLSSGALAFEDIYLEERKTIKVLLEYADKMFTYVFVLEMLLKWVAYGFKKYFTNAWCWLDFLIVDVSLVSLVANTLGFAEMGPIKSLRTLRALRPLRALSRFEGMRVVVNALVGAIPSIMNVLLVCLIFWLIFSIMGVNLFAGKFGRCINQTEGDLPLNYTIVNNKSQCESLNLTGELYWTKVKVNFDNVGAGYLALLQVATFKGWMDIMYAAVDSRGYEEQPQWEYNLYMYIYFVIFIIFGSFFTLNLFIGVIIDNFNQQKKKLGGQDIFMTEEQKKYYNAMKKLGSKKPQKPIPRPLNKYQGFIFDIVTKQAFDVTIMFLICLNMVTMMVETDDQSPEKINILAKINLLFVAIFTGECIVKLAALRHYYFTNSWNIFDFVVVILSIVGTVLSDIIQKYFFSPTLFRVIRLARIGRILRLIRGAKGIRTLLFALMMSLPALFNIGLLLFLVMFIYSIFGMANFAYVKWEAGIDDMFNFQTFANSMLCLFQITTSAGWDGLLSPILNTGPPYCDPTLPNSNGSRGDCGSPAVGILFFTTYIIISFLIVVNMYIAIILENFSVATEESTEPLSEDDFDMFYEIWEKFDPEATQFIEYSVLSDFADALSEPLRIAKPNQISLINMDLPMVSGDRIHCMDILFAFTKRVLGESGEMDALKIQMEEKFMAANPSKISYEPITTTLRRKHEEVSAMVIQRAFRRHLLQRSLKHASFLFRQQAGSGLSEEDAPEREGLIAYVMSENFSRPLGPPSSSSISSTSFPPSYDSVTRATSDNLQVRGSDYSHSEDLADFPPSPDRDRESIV

| SMILES | IC50 (NaV1.5 [1]; [3]) | IC50 (hNav1.7; [4]) | IC50 (NaV1.7) | IC50 (NaV1.5 [1]) | IC50 (hNav1.7) | IC50 (NaV1.5 [2]) |
| --- | --- | --- | --- | --- | --- | --- |
| CCS(=O)(=O)NC(=O)c1cc(C2CC2)c(OCC2CCN([C@@H](c3cc(Cl)cc(Cl)c3)C(C)(C)OC)CC2)cc1F (single isomer, unassigned) [Example 208] | 13 nM | 1.6 nM | 3 nM | – | – | – |
| C[C@H](c1ccc(Cl)c(C2CC2)n1)N1CCC[C@@H](Oc2cc(F)c(C(=O)NS(C)(=O)=O)cc2C2CC2)C1 (single isomer, unassigned) [Example 309] | 380 nM | 2.7 nM | 3 nM | – | – | – |
| O=C(NS(=O)(=O)N1CCC1)c1cc(C2CC2)c(O[C@@H]2CCCN(Cc3ccccc3)C2)cc1F [Example 1, (R)—N-(azetidin-1-ylsulfonyl)-4-((1-benzylpiperidin-3-yl)oxy)-5-cyclopropyl-2-fluorobenzamide] | 2760 nM | 35.6 nM | 22.6 nM | – | – | – |
| O=C(NS(=O)(=O)N1CCC1)c1cc(C2CC2)c(O[C@@H]2CCCN(Cc3ccc(F)cc3Cl)C2)cc1F [Example 6, (R)—N-(azetidin-1-ylsulfonyl)-4-((1-(2-chloro-4-fluorobenzyl)piperidin-3-yl)oxy)-5-cyclopropyl-2-fluoroenzamide] | – | – | 0.9 nM | 33.1 nM | 3 nM | – |
| O=C(NS(=O)(=O)N1CCC1)c1cc(C2CC2)c(OCC2CC3CCC(C2)N3C(c2ccccc2)c2ccccc2)cc1F (stereo not shown) [Example 49, N-(azetidin-1-ylsulfonyl)-4-((8-benzhydryl-8-azabicyclo[3.2.1]-octan-3-yl)methoxy)-5-cyclopropyl-2-fluorobenzamide] | – | – | – | – | – | 199 nM |
| C[C@@H](c1cc(Cl)cc(Cl)c1)N1CCC(COc2cc(F)c(C(=O)NS(C)(=O)=O)cc2C2CC2)CC1 [Example 100, (S)-5-Cyclopropyl-4-((1-(1-(3,5-dichlorophenyl)ethyl)piperidin-4-yl)methoxy)-2-fluoro-N-(methylsulfonyl)benzamide] | 552 nM | 4.19 nM | 5.8 nM | – | – | – |
| CS(=O)(=O)NC(=O)c1cc(C2CC2)c(OCC2CCN(Cc3cc(F)cc(C(F)(F)F)c3)CC2)cc1F [Example 228, 5-Cyclopropyl-2-fluoro-4-((1-(3-fluoro-5-(trifluoromethyl)benzyl)piperidin-4-yl)methoxy)-N-(methylsulfonyl)benzamide] | 4100 nM | 5.1 nM | 31 nM | – | – | – |
| O=C(NS(=O)(=O)C1CC1)c1cc(C2CC2)c(OCC2CCN(Cc3cc(Cl)cc(Cl)c3)CC2)cc1F [Example 259, 5-Cyclopropyl-N-(cyclopropylsulfonyl)-4-((1-(3,5-dichlorobenzyl)piperidin-4-yl)methoxy)-2-fluorobenzamide] | 110 nM | 2.2 nM | 23 nM | – | – | – |
| CS(=O)(=O)NC(=O)c1cc(C2CC2)c(O[C@@H]2CCCN(Cc3ccc(F)cc3Cl)C2)cc1F [Example 312, (R)-4-((1-(2-chloro-4-fluorobenzyl)piperidin-3-yl)oxy)-5-cyclopropyl-2-fluoro-N-(methylsulfonyl)benzamide] | 310 nM | 2.2 nM | < 1 nM | – | – | – |
| CS(=O)(=O)NC(=O)c1cc(C2CC2)c(OCC2(F)CCN(Cc3cc(C(F)(F)F)cc(Cl)c3F)CC2)cc1F [Example 346, 4-((1-(3-chloro-2-fluoro-5-(trifluoromethyl)benzyl)-4-fluoropiperidin-4-yl)methoxy)-5-cyclopropyl-2-fluoro-N-(methylsulfonyl)benzamide trifluoroacetic acid salt] | 682000 nM | 4.4 nM | 2.2 nM | – | – | – |
| CS(=O)(=O)NC(=O)c1cc(C2CC2)c(CN2CCO[C@H](Cc3cc(Cl)cc(Cl)c3)C2)cc1F [Example 463, (R)-5-cyclopropyl-4-((2-(3,5-dichlorobenzyl)morpholino)methyl)-2-fluoro-N-(methylsulfonyl)benzamide] | 669 nM | 3.8 nM | < 3 nM | – | – | – |
| O=C(NS(=O)(=O)C1CC1)c1cc(C2CC2)c(CN2CCO[C@H](Cc3cc(Cl)cc(Cl)c3)C2)cc1F [Example 464, (R)-5-cyclopropyl-N-(cyclopropylsulfonyl)-4-((2-(3,5-dichlorobenzyl)morpholino)methyl)-2-fluorobenzamide] | 109 nM | 2.7 nM | < 3 nM | – | – | – |
| O=C(NS(=O)(=O)C1CC1)c1cc(C2CC2)c(CN2CCC(Oc3ncc(C4CC4)cc3Cl)CC2)cc1F [Example 474, 4-((4-((3-chloro-5-cyclopropylpyridin-2-yl)oxy)piperidin-1-yl)methyl)-5-cyclopropyl-N-(cyclopropylsulfonyl)-2-fluorobenzamide hydrochloride] | 449 nM | 5.6 nM | < 3 nM | – | – | – |
| CC(C)(c1cc(Cl)cc(Cl)c1)N1CCC[C@@H](Oc2cc(F)c(C(=O)NS(=O)(=O)C3CC3)cc2C2CC2)C1 [Example 495, (R)-5-cyclopropyl-N-(cyclopropylsulfonyl)-4-((1-(2-(3,5-dichlorophenyl)propan-2-yl)oxy)-2-fluorobenzamide, trifluoroacetic acid salt] | 15.4 nM | 4.4 nM | 0.2 nM | – | – | – |
| CS(=O)(=O)NC(=O)c1cc(C2CC2)c(OCC2CCN(Cc3cc(Cl)cc(Cl)c3C#N)CC2)cc1F [Example 594, 5-Cyclopropyl-4-((1-(3,5-dichloro-2-cyanobenzyl)piperidin-4-yl)methoxy)-2-fluoro-N-(methylsulfonyl)benzamide] | 623 nM | 137 nM | 8.4 nM | – | – | – |
